US8377851B2, “Method of altering the alkaloid composition in poppy plants” (priority 2004, dated 2013)
Where two headings read alike, the source gives them in different places.

What was measured:
[1] = system: morphine crop; parameters: species or system Papaver somniferum; conditions: in vivo
[2] = system: morphine crop; test: Example 29 field trial: methyl jasmonate, capsule/seed ratio and alkaloid assay
[3] = system: morphine crop; parameters: species or system Papaver somniferum; conditions: in vivo; remark: listed apart in the source

O=C(O)CN(CCN(CC(=O)O)CC(=O)O)CC(=O)O [EDTA]
CAPSULE/SEED RATIO [1]: 0.590 c
CODEINE kg/ha [1]: 0.790 b kg/ha
MORPHINE kg/ha [1]: 32.97 a kg/ha
ORIPAVINE kg/ha [1]: 0.618 c kg/ha
SEED kg/ha [1]: 1960 a kg/ha
STRAW CODEINE % [1]: 0.047 b %
STRAW MORPHINE % [1]: 1.98 a %
STRAW O'PAVINE % [1]: 0.036 b %
STRAW THEBAINE % [1]: 0.139 c %
STRAW kg/ha [1]: 1668 b kg/ha
THEBAINE kg/ha [1]: 2.350 c kg/ha
YIELD t/ha [1]: 3.63 ab t/ha

CC/C=C\CC1C(=O)CCC1CC(=O)OC (centres unmarked) [METHYL JASMONATE, methyl jasmonate]
CAPSULE/SEED RATIO ([2]; METHYL JAS .15 L/ha at EF): 0.575 a
STRAW CODEINE ([2]; METHYL JAS .15 L/ha at EF): 0.064 b %
STRAW MORPHINE ([2]; METHYL JAS .15 L/ha at EF): 2.04 a %
STRAW O'PAVINE ([2]; METHYL JAS .15 L/ha at EF): 0.009 b %
STRAW THEBAINE ([2]; METHYL JAS .15 L/ha at EF): 0.042 b %
CAPSULE/SEED RATIO ([2]; METHYL JAS .15 L/ha at GCAPS): 0.577 a
STRAW CODEINE ([2]; METHYL JAS .15 L/ha at GCAPS): 0.044 c %
STRAW MORPHINE ([2]; METHYL JAS .15 L/ha at GCAPS): 2.01 a %
STRAW O'PAVINE ([2]; METHYL JAS .15 L/ha at GCAPS): 0.005 c %
STRAW THEBAINE ([2]; METHYL JAS .15 L/ha at GCAPS): 0.033 c %
CAPSULE/SEED RATIO ([2]; METHYL JAS .3 L/ha at EF): 0.581 a
STRAW CODEINE ([2]; METHYL JAS .3 L/ha at EF): 0.075 a %
STRAW MORPHINE ([2]; METHYL JAS .3 L/ha at EF): 2.09 a %
STRAW O'PAVINE ([2]; METHYL JAS .3 L/ha at EF): 0.011 a %
STRAW THEBAINE ([2]; METHYL JAS .3 L/ha at EF): 0.051 a %
CAPSULE/SEED RATIO ([2]; METHYL JAS .3 L/ha at GCAPS): 0.577 a
STRAW CODEINE ([2]; METHYL JAS .3 L/ha at GCAPS): 0.042 c %
STRAW MORPHINE ([2]; METHYL JAS .3 L/ha at GCAPS): 2.04 a %
STRAW O'PAVINE ([2]; METHYL JAS .3 L/ha at GCAPS): 0.004 c %
STRAW THEBAINE ([2]; METHYL JAS .3 L/ha at GCAPS): 0.029 c %
CAPSULE/SEED RATIO [3]: 0.685 c
CODEINE kg/ha [3]: 1.104 a kg/ha
MORPHINE kg/ha [3]: 19.99 b kg/ha
ORIPAVINE kg/ha [3]: 7.853 c kg/ha
SEED kg/ha [3]: 1886 bc kg/ha
STRAW CODEINE % [3]: 0.059 a %
STRAW MORPHINE % [3]: 1.07 b %
STRAW O'PAVINE % [3]: 0.422 b %
STRAW THEBAINE % [3]: 1.028 c %
STRAW kg/ha [3]: 1863 b kg/ha
THEBAINE kg/ha [3]: 19.124 c kg/ha
YIELD kg/ha [3]: 3.75 a kg/ha
